The test system of one experiment is Aspergillus fumigatus. The experiment is described as follows: Test 2: Action against Aspergillus fumigatus (in vitro), MIC. In kind it is cell-based, Aspergillus fumigatus IFM 40808. To be noted: A. fumigatus IFM 40808, MOPS-containing RPMI 1640, pH 7, almar Blue, 35° C., 48 hours. On the procedure: Test 2: Action Against Aspergillus fumigatus (in vitro)
They were incubated at 35° C. for 48 hours. Judgment was made visually and the minimum medicament concentration not permitting a change into red (the medium maintained blue color) was designated as an MIC value (μg/ml).

The next experiment concerns C. albicans IFM 40009. Nature of the experiment: Test 3: Action against Candida albicans (in vivo), systemic infection in mice. Conditions: i.v. C. albicans 3.0×10^6 cells/mouse, oral 1.25 mg/kg each, four times; for Surviving mice on Day 14 (number of surviving mice/total number in group): Day 14, control 0/11; for Average Survival days: Kaplan-Meier method (Cox mantel test), control 4.5. As for the experimental part:
Test 3: Action Against Candida albicans (in vivo)
After 4-week-old, male, ICR (CRJ: CD-1) mice were fasted for 6 hours, C. albicans IFM 40009 was inoculated to the tail vein of each of the mice to give an amount of 3.0×10^6 cells/mouse, whereby infection was caused. A control group consisted of 11 mice, while a medicament-administered group consisted of 5 mice. The medicament dissolved in 20% polyethylene glycol was orally administered 1 hour after the inoculation of the fungus and then consecutively once a day 24 hours after the inoculation, four times in total, at 1.25 mg/kg each. The survival condition on Day 14 after the infection was compared. In addition, the survival days of the control group and the medicament-administered group were detected by the Kaplan-Meier method (Cox mantel test). Incidentally, Fluconazole was employed as a medicament for comparison.

In a further experiment the test system is Candida albicans. Nature of the experiment: Test 1: Action against Candida albicans (in vitro), suppression of mycelial type growth. In kind it is cell-based, Candida albicans ATCC 44859. Conditions: ATCC44859, C. albicans ATCC 44859, 10% fetal-bovine-serum added MEM, 37° C., 24 hours, CO2 incubator, read-out: Terminal point (minimum medicament concentration permitting the apparent suppression of mycerial type growth). On the procedure: Test 1: Action Against Candida albicans (in vitro)
The resulting mixture was incubated at 37° C. for 24 hours in a CO2 gas incubator. After incubation, a morphological change of C. albicans was observed under an inverted microscope. The minimum medicament concentration permitting the apparent suppression of mycerial type growth compared with that of a medicament-free control was designated as a terminal point (ng/ml).

For orientation: MIC means the least concentration at which growth counts as inhibited.

Converted amounts (≈) assume the structure as drawn.

In the case of `CCS(=O)(=O)C(F)(F)C(O)(Cn1cncn1)c1ccc(F)cc1F` (racemic) [Example 15, 2-(2,4-difluorophenyl)-1-(ethylsulfonyl) -1,1-difluoro-3-(1H-1,2,4-triazole-1-yl)-2-propanol], it took 8 µg/mL (≈ 21.8 µM) to inhibit growth in the experiment on Aspergillus fumigatus (MIC). Also, in the experiment with C. albicans IFM 40009, the “Surviving mice on Day 14 (number of surviving mice/total number in group)” value was 4/5 and the “Average Survival days” value is listed as 14.00 days. In addition, in the experiment with Candida albicans, the minimal effective concentration was 0.0313 µg/mL.

As for `CCS(=O)(=O)C(F)(F)C(O)(Cn1cncn1)c1ccc(F)cc1F` (single isomer, unassigned; (-)) [Example 21(2), (-)-2-(2,4-difluorophenyl)-1-(ethylsulfonyl)-1,1-difluoro-3-(1H-1,2,4-triazol-1-yl)-2-propanol], the MIC against Aspergillus fumigatus was 4 µg/mL (≈ 10.9 µM). Besides, the minimal effective concentration in the experiment on Candida albicans was 0.0156 µg/mL.

Turning to `CCS(=O)(=O)C(F)(F)C(O)(Cn1cncn1)c1ccc(F)cc1` (single isomer, unassigned; (-)) [Example 22(2), (-)-1-(Ethylsulfonyl)-1,1-difluoro-2-(4-fluorophenyl)-3-(1H-1,2,4-triazol-1-yl)-2-propanol], the minimal inhibitory concentration (MIC) in the experiment with Aspergillus fumigatus was 8 µg/mL (≈ 22.9 µM). Besides, the minimal effective concentration in the experiment with Candida albicans turned out to be 0.0156 µg/mL.

`CCSC(F)(F)C(O)(Cn1cncn1)c1ccc(F)cc1F` (stereo not drawn) [Example 9, 2-(2,4-difluorophenyl)-1-(ethylthio)-1,1-difluoro-3-(1H-1,2,4-triazol-1-yl)-2-propanol] displayed an MIC against Aspergillus fumigatus of 2 µg/mL (≈ 5.96 µM). Besides, the minimal effective concentration in the experiment with Candida albicans came out at 0.0078 µg/mL.

Consider `CCSC(F)(F)C(O)(Cn1cncn1)c1ccc(F)cc1` (stereo not drawn) [Example 10, 1-(ethylthio)-1,1-difluoro-2-(4-fluorophenyl)-3-(1H-1,2,4-triazol-1-yl)-2-propanol], for which the minimum inhibitory concentration (MIC) in the experiment with Aspergillus fumigatus was 8 µg/mL (≈ 25.2 µM). In addition, the minimal effective concentration with Candida albicans was 0.0313 µg/mL.

As to `CCSC(F)(F)C(O)(Cn1cncn1)c1ccc(C(F)(F)F)cc1` (stereo not drawn) [Example 11, 1-(ethylthio)-1,1-difluoro-2-(4-trifluoromethylphenyl)-3-(1H-1,2,4-triazol-1-yl)-2-propanol], the MIC in the experiment on Aspergillus fumigatus was 16 µg/mL (≈ 43.6 µM). Besides, in the experiment on Candida albicans, the minimal effective concentration amounted to 0.0078 µg/mL.

For `CCSC(F)(F)C(O)(Cn1cncn1)c1ccc(Cl)cc1Cl` (stereo not drawn) [Example 12, 2-(2,4-dichlorophenyl)-1-(ethylthio)-1,1-difluoro-3-(1H-1,2,4-triazol-1-yl)-2-propanol], the MIC in the experiment with Aspergillus fumigatus worked out at 1 µg/mL (≈ 2.72 µM). In addition, the minimal effective concentration with Candida albicans came out at 0.0039 µg/mL.

As to `CCSC(F)(F)C(Cn1cncn1)(OC)c1ccc(F)cc1F` (stereo not drawn) [Example 13, 1-[2-(2,4-difluorophenyl)-3-ethylthio-3,3-difluoro-2-methoxypropyl]-1H-1,2,4-triazole], the MIC in the experiment on Aspergillus fumigatus came out at 8 µg/mL (≈ 22.9 µM). The minimal effective concentration in the experiment on Candida albicans came to 0.0313 µg/mL.

With `CCS(=O)(=O)C(F)(F)C(O)(Cn1cncn1)c1ccc(Cl)cc1Cl` (stereo not drawn) [Example 18, 2-(2,4-dichlorophenyl)-1-(ethylsulfonyl)-1,1-difluoro-3-(1H-1,2,4-triazol-1-yl)-2-propanol], the lowest concentration to inhibit growth against Aspergillus fumigatus (MIC) was 8 µg/mL (≈ 20 µM). In the experiment on Candida albicans, the minimal effective concentration is 0.0156 µg/mL.

`OC(Cn1cncn1)(Cn1cncn1)c1ccc(F)cc1F` [Fluconazole, reference compound] came in with a minimum inhibitory concentration (MIC) in the experiment with Aspergillus fumigatus above 128 µg/mL. Also, in the experiment with C. albicans IFM 40009, the “Surviving mice on Day 14 (number of surviving mice/total number in group)” value is recorded as 1/5 and the “Average Survival days” value came to 11.0 days. Moreover, the minimal effective concentration with Candida albicans stood at 0.25 µg/mL.

Source of the values: patent US6204415A, “Triazole derivative or salt thereof, preparation process thereof and pharmaceutical containing said compound as an effective ingredient” (SSP Co., Ltd., priority 1997, dated 2001).
